In ChEMBL document CHEMBL1641422, “Bitriazolyl acyclonucleosides synthesized via Huisgen reaction using internal alkynes show antiviral activity against tobacco mosaic virus” (2011):

test system: Tobacco mosaic virus; test: Antiviral activity against Tobacco mosaic virus after 72 hrs by half-leaf juice rubbing method; type: functional; set-up: concentration or dose not given beside the values

Row | Compound | Activity [%]
1 | NC(=O)c1nc(-c2nn[nH]c2-c2ccccc2)n(COCCO)n1 | 36
2 | Cc1ccc(-c2[nH]nnc2-c2nc(C(N)=O)nn2COCCO)cc1 | 28
3 | COc1ccc(-c2[nH]nnc2-c2nc(C(N)=O)nn2COCCO)cc1 | 39
4 | CCCCc1ccc(-c2[nH]nnc2-c2nc(C(N)=O)nn2COCCO)cc1 | 22
5 | CCCCCc1ccc(-c2[nH]nnc2-c2nc(C(N)=O)nn2COCCO)cc1 | 44
6 | NC(=O)c1nc(-c2nn[nH]c2-c2ccc(F)cc2)n(COCCO)n1 | 29
7 | NC(=O)c1nc(-c2nn[nH]c2-c2ccccc2C(F)(F)F)n(COCCO)n1 | 17
8 | NC(=O)c1nc(-c2nn[nH]c2-c2cccc(C(F)(F)F)c2)n(COCCO)n1 | 16
9 | NC(=O)c1nc(-c2nn[nH]c2-c2ccc(C(F)(F)F)cc2)n(COCCO)n1 | 30
10 | NC(=O)c1nc(-c2nn[nH]c2-c2cccs2)n(COCCO)n1 | 14
11 | CCCCCc1[nH]nnc1-c1nc(C(N)=O)nn1COCCO | 34
12 | NC(=O)c1nc(-c2nn[nH]c2C2=CCCCC2)n(COCCO)n1 | 23
13 | NC(=O)c1ncn([C@@H]2O[C@H](CO)[C@@H](O)[C@H]2O)n1 [RIBAVIRIN] | 39
